System: influenza A and B viruses
Assay: Inhibitory activity against virus (general statement)
Assay type: cell-based
Details: statement in words

With C[C@H]1CC[C@H]2C(C)(C)[C@@H](O)CC[C@]23Oc2c(c(O)cc4c2CNC4=O)C[C@]13C [SQ-02-S5, (6a R, 7S, 9a S, 11 S, 13a S)-2,3,6,6a,7,8,9,9a,10,11,12,13-dodecahydro-5, 11-dihydroxy-6a, 7,10,10-tetramethyl-3-oxo-1H-benzo[8,8a][1]benzopyrano[2,3-e]isoindole] the “inhibitory activity against virus” value was “strong inhibitory activity against virus”.

Source: US6143732A, “Sesquiterpene derivatives” (priority 1997, dated 2000)
